{
  "source": "patent US7015237B2",
  "about": "“Pyridine matrix metalloproteinase inhibitors” (Warner-Lambert Company, priority 2001, dated 2006)",
  "key": {"[1]": {"target": "MMP-13 (catalytic domain of collagenase 3) (Homo sapiens, UniProt P45452)", "assay": "Thiopeptolide substrate hydrolysis assay, MMP-13", "type": "biochemical", "source_text": "(§1) The assays used to evaluate the biological activity of the invention compounds are well known and routinely used by those skilled in the study of MMP inhibitors and their use to treat clinical conditions.\n(§2) The assays measure the amount by which a test compound reduces the hydrolysis of a thiopeptolide substrate catalyzed by a matrix metalloproteinase enzyme. Such assays are described in detail by Ye et al., in Biochemistry, 1992; 31(45):11231–11235, which is incorporated herein by reference.\nThiopeptolide substrates show virtually no decomposition or hydrolysis at or below neutral pH in the absence of a matrix metalloproteinase enzyme. A typical thiopeptolide substrate commonly utilized for assays is Ac-Pro-Leu-Gly-thioester-Leu-Leu-Gly-OEt. A 100-μL assay mixture will contain 50 mM of N-2-hydroxyethylpiperazine-N′-2-ethanesulfonic acid buffer (“HEPES”) at pH 7.0, 10 mM CaCl2, 100 μM thiopeptolide substrate, and 1 mM 5,5′-dithio-bis-(2-nitro-benzoic acid) (DTNB). The thiopeptolide substrate concentration may be varied from, for example, 10 to 800 μM to obtain Km and Kcat values. The change in absorbance at 405 nm is monitored on a Thermo Max microplate reader (Molecular Devices, Menlo Park, Calif.) at room temperature (22° C.). The calculation of the amount of hydrolysis of the thiopeptolide substrate is based on E412=13600 M^−1 cm^−1 for the DTNB-derived product 3-carboxy-4-nitrothiophenoxide. Assays are carried out with and without matrix metalloproteinase inhibitor compounds, and the amount of hydrolysis is compared for a determination of inhibitory activity of the test compounds.\nIn the tables, MMP-1 refers to full-length interstitial collagenase; MMP-3 refers to the catalytic domain of stromelysin-1; MMP-13 refers to the catalytic domain of collagenase 3. Test compounds were evaluated at various concentrations to determine their respective IC50 values."}, "[2]": {"target": "T1, MMP-1 (full-length interstitial collagenase) (Homo sapiens, UniProt P03956)", "T1 sequence (P03956 100-469)": "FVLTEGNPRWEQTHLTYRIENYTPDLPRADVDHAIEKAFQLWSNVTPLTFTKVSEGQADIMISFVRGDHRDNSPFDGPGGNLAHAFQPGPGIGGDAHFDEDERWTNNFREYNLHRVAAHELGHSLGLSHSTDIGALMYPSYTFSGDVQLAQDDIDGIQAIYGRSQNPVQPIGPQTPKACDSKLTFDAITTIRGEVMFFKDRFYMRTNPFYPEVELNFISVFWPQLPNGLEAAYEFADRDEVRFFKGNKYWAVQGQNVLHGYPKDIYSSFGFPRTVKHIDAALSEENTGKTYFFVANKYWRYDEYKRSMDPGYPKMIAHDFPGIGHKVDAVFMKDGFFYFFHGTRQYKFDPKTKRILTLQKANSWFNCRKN", "assay": "Thiopeptolide substrate hydrolysis assay, MMP-1", "type": "biochemical", "conditions": "pH 7.0, 22° C.", "source_text": "as §1, with “The invention compounds of Formula I have been evaluated in standard assays for their ability to inhibit the catalytic activity of various MMP enzymes. The” for “The”\nas §2\nThiopeptolide substrates show virtually no decomposition or hydrolysis at or below neutral pH in the absence of a matrix metalloproteinase enzyme. A typical thiopeptolide substrate commonly utilized for assays is Ac-Pro-Leu-Gly-thioester-Leu-Leu-Gly-OEt. […] The change in absorbance at 405 nm is monitored on a Thermo Max microplate reader (Molecular Devices, Menlo Park, Calif.) at room temperature (22° C.). […]\nRepresentative compounds have been evaluated for their ability to inhibit various matrix metalloproteinase enzymes. […] Test compounds were evaluated at various concentrations to determine their respective IC50 values."}, "[3]": {"conditions": "catalytic domain of collagenase 3, Table 1, read-out: MMP-13 IC50"}, "[4]": {"conditions": "catalytic domain, human, combinatorial compounds of Example 14, Table 2, read-out: MMP-13 IC50 CD/Human"}},
  "note": "Like-named read-outs stand apart in the source and are kept apart here.",
  "data": [
    {"molecule": "O=C(NCc1ccc(Cl)cc1)c1cncc(C(=O)NCc2ccc(Cl)cc2)c1", "note": "[Example 2, Pyridine-3,5-dicarboxylic acid bis-(4-chloro-benzylamide)]", "values": [
      {"measurement": "melting point", "result": "224 to 225", "unit": "°C"}
    ]},
    {"molecule": "O=C(NCc1cccc(Cl)c1)c1cncc(C(=O)NCc2cccc(Cl)c2)c1", "note": "[Example 3, Pyridine-3,5-dicarboxylic acid bis-(3-chloro-benzylamide)]", "values": [
      {"measurement": "IC50", "setting": "[1]; [3]", "result": 30, "unit": "µM"},
      {"measurement": "melting point", "result": "185 to 186", "unit": "°C"}
    ]},
    {"molecule": "O=C(OCc1ccc2c(c1)OCO2)c1cncc(C(=O)OCc2ccc3c(c2)OCO3)c1", "note": "[Example 5, Pyridine-3,5-dicarboxylic acid bis-(1,3-benzodioxol-5-ylmethyl) ester]", "values": [
      {"measurement": "melting point", "result": "113 to 114", "unit": "°C"}
    ]},
    {"molecule": "COc1ccc(CNC(=O)c2cncc(C(=O)NCc3ccc(OC)cc3)c2)cc1", "note": "[Example 6, Pyridine-3,5-dicarboxylic acid bis-(4-methoxy-benzylamide)]", "values": [
      {"measurement": "IC50", "setting": "[1]; [3]", "result": 8.7, "unit": "µM"},
      {"measurement": "melting point", "result": "224 to 225", "unit": "°C"}
    ]},
    {"molecule": "O=C(NCc1ccc2c(c1)OCO2)c1cncc(C(=O)NCc2ccc3c(c2)OCO3)c1", "note": "[Example 7, Pyridine-3,5-dicarboxylic acid bis-[(1,3-benzodioxol-5-ylmethyl)-amide]]", "values": [
      {"measurement": "IC50", "setting": "[1]; [3]", "result": 2.3, "unit": "µM"},
      {"measurement": "IC50", "setting": "[2]", "result": 30, "unit": "µM"},
      {"measurement": "melting point", "result": "194 to 195", "unit": "°C"}
    ]},
    {"molecule": "O=C(NCc1ccc(F)cc1)c1cncc(C(=O)NCc2ccc(F)cc2)c1", "note": "[Example 9, Pyridine-3,5-dicarboxylic acid bis-(4-fluoro-benzylamide)]", "values": [
      {"measurement": "melting point", "result": "216 to 218", "unit": "°C"}
    ]},
    {"molecule": "COc1ccc2[nH]cc(CCNC(=O)c3ccnc(C(=O)NCCc4c[nH]c5ccc(OC)cc45)c3)c2c1", "note": "[Example 14.78, Pyridine-2,4-dicarboxylic acid bis-{[2-(5-methoxy-1H-indol-3-yl)-ethyl]-amide}]", "values": [
      {"measurement": "IC50", "setting": "[1]; [4]", "result": 30, "unit": "µM"}
    ]},
    {"molecule": "O=C(NCCc1c[nH]c2ccccc12)c1ccnc(C(=O)NCCc2c[nH]c3ccccc23)c1", "note": "[Example 14.79, Pyridine-2,4-dicarboxylic acid bis-{[2-(1H-indol-3-yl)-ethyl]-amide}]", "values": [
      {"measurement": "IC50", "setting": "[1]; [4]", "result": 30, "unit": "µM"}
    ]},
    {"molecule": "O=C(NCc1cc(Cl)cc(Cl)c1)c1ccnc(C(=O)NCc2cc(Cl)cc(Cl)c2)c1", "note": "[Example 14.80, Pyridine-2,4-dicarboxylic acid bis-(3,5-dichloro-benzylamide)]", "values": [
      {"measurement": "IC50", "setting": "[1]; [4]", "result": 30, "unit": "µM"}
    ]},
    {"molecule": "Pyridine-2,4-dicarboxylic acid bis-benzylamide [Example 14.5]", "values": [
      {"measurement": "IC50", "setting": "[1]; [4]", "result": 0.29, "unit": "µM"}
    ]},
    {"molecule": "Pyridine-2,4-dicarboxylic acid bis-indan-1-ylamide [Example 14.73]", "values": [
      {"measurement": "IC50", "setting": "[1]; [4]", "result": 0.44, "unit": "µM"}
    ]}
  ]
}
